Each structure is given as a SMILES string. Values joined by “and” are separate entries in the source; they are usually repeats but may differ in a detail not shown here. Equal values may be shown once.

As usually defined, the inhibition is how much of the control response was suppressed. A lower inhibition goes with a weak effect.

Assay [1] relates to collagen plus epinephrine induced pulmonary thromboembolism. The assay can be described thus: Collagen-epinephrine induced pulmonary thromboembolism in mice. The format is in vivo. The method, then: To assess the antithrombotic efficacy of compounds, mice were grouped into vehicle, aspirin and compound treated groups, and each group included ten animals. Pulmonary thromboembolism was induced by injecting a mixture of collagen (150 μg/ml) and adrenaline (50 μg/ml) into the tail vein to achieve final doses of collagen (1.5 mg/kg) and adrenaline (0.5 mg/kg) to induce hind limb paralysis or death.^11, 12 Number of test animals killed or paralyzed were evaluated (death/paralysis were employed as endpoint to evaluate antithrombotic agents). The percent protection was calculated by taking the ratio of number of test animals killed or paralyzed to that of total tested animals. Results have been reported as percentage protection, which represents protection against collagen and epinephrine induced thromboembolism and expressed as;
Percent Protection=[1−(Ptest/Pcontrol)]×100
Where, Ptest is the number of animals paralyzed/dead in test compound-treated group, and Pcontrol is the total number of animals paralyzed/dead in vehicle treated group. The percent protection refers to the number of animals in compound treated group that were prevented from paralysis/death.

In assay [2] the test system is human platelets. The assay can be described thus: Collagen induced platelet aggregation in human platelets (in vitro). It counts as cell-based. The conditions noted are these: compound concentration 30 μM, n = 3; for inhibition at 30 µM: Homo sapiens, Platelet.
Where [3] appears, read: Mus musculus, po, 1 h, read-out: Protection (%).

Regarding `CC(=O)Oc1ccccc1C(=O)O` [Aspirin, reference compound], the inhibition in vivo at 170 µM, 170 µmol/kg in assay [1] (setting [3]) came to 40%. In addition, the “Protection (%)” value in assay [1] (mice, Aspirin at 170 μm (text: 170 μM/kg)) was 40 (at 170 μm) % and 40 (at %.

In assay [2], `CC(C)(C)OC(=O)N1CC2CC(C1)CN(C(=O)[C@@H]1CCC(=O)N1Cc1ccccc1)C2` [Compound 1a, 7-(1-Benzyl-5-oxo-pyrrolidine-2-carbonyl)-3,7-diaza-bicyclo[3.3.1]nonane-3-carboxylic acid tert-butyl ester] registered an inhibition at 30 µM of 6 ± 14%. Besides, in assay [1] (setting [3]), the inhibition in vivo at 30 µM, 30 µmol/kg was 40%.

Consider `CC(C)(C)OC(=O)N1CC2CC(C1)CN(C(=O)[C@@H]1CCC(=O)N1Cc1ccccc1Br)C2` [Compound 1b, 7-[1-(2-Bromo-benzyl)-5-oxo-pyrrolidine-2-carbonyl]-3,7-diaza-bicyclo[3.3.1]nonane-3-carboxylic acid tert-butyl ester], for which the “Inhibition (%) of collagen induced platelet aggregation” value in assay [2] is reported as “Ns”. The inhibition in vivo at 30 µM, 30 µmol/kg in assay [1] (setting [3]) turned out to be 50%.

In assay [2], `O=C([C@@H]1CCC(=O)N1Cc1ccccc1)N1CC2CC(CN(Cc3ccccc3)C2)C1` [Compound 1c, 1-Benzyl-5-(7-benzyl-3,7-diaza-bicyclo[3.3.1]nonane-3-carbonyl)-pyrrolidin-2-one] registered an inhibition at 30 µM of 44 ± 13%. Also, the inhibition in vivo at 30 µM, 30 µmol/kg in assay [1] (setting [3]) stood at 30%.

Consider `Cc1ccc(CN2C(=O)CC[C@H]2C(=O)N2CC3CC(CN(C(=O)OC(C)(C)C)C3)C2)cc1` [Compound 1e, 7-[1-(4-Methyl-benzyl)-5-oxo-pyrrolidine-2-carbonyl]-3,7-diaza-bicyclo[3.3.1]nonane-3-carboxylic acid tert-butyl ester], for which, in assay [2], the inhibition at 30 µM was found to be 25 ± 9%. Further, the inhibition in vivo at 30 µM, 30 µmol/kg in assay [1] (setting [3]) amounted to 40%.

In turn, `Cc1ccc(CN2C(=O)CC[C@H]2C(=O)N2CC3CC(CN(Cc4ccccc4)C3)C2)cc1` [Compound 1f, 5-(7-Benzyl-3,7-diaza-bicyclo[3.3.1]nonane-3-carbonyl)-1-(4-methyl-benzyl)-pyrrolidin-2-one] had an inhibition at 30 µM in assay [2] of 7 ± 7%. The inhibition in vivo at 30 µM, 30 µmol/kg in assay [1] (setting [3]) was 25%.

`O=C([C@@H]1CCC(=O)N1Cc1c(Cl)cccc1Cl)N1CC2CC(CN(Cc3ccccc3)C2)C1` [Compound 1g, (5S)-5-(7-benzyl-3,7-diazabicyclo[3.3.1]nonane-3-carbonyl)-1-(2,6-dichlorobenzyl)pyrrolidin-2-one] gave an inhibition at 30 µM in assay [2] of 57 to 86%. The inhibition in vivo at 30 µM, 30 µmol/kg in assay [1] (setting [3]) was 40%.

`O=C([C@@H]1CCC(=O)N1Cc1ccc(Cl)cc1)N1CC2CC(CN(Cc3ccccc3)C2)C1` [Compound 1h] displayed an inhibition at 30 µM in assay [2] of 57 to 86%. The inhibition in vivo at 30 µM, 30 µmol/kg in assay [1] (setting [3]) stood at 30%.

The compound `Cc1ccc(S(=O)(=O)N2C(=O)CC[C@H]2C(=O)N2CC3CC(CN(Cc4ccccc4)C3)C2)cc1` [Compound 1i, (5S)-5-(7-benzyl-3,7-diazabicyclo[3.3.1]nonane-3-carbonyl)-1-tosylpyrrolidin-2-one] returned an inhibition at 30 µM in assay [2] of 29 ± 1%. Also, the inhibition in vivo at 30 µM, 30 µmol/kg in assay [1] (setting [3]) stood at 30%.

In turn, `CC(C)(C)OC(=O)N1CC2CC(C1)CN(C(=O)[C@@H]1CCC(=O)N1Cc1ccc(C#N)cc1)C2` [Compound 1j, tert-butyl-7-((S)-1-(4-cyanobenzyl)-5-oxopyrrolidine-2-carbonyl)3,7diazabicyclo[3.3.1]nonane-3-carboxylate] came in with an inhibition at 30 µM in assay [2] of 11 ± 3%. Further, the inhibition in vivo at 30 µM, 30 µmol/kg in assay [1] (setting [3]) was determined as 55%.

`CC(C)(C)OC(=O)N1CC2CC(C1)CN(C(=O)[C@@H]1CCC(=O)N1Cc1ccc(Cl)cc1)C2` [Compound 1k, tert-butyl 7-((S)-1-(4-chlorobenzyl)-5-oxopyrrolidine-2-carbonyl)-3,7-diazabicyclo [3.3.1]nonane-3-carboxylate] displayed an inhibition at 30 µM in assay [2] of 6 ± 11%. The inhibition in vivo at 30 µM, 30 µmol/kg in assay [1] (setting [3]) amounted to 30%.

As for `CC(C)(C)OC(=O)N1CC2CC(C1)CN(C(=O)[C@@H]1CCC(=O)N1Cc1c(Cl)cccc1Cl)C2` [Compound 1l, tert-butyl 7-((S)-1-(2,6-dichlorobenzyl)-5-oxopyrrolidine-2-carbonyl)-3,7-diazabicyclo [3.3.1]nonane-3-carboxylate], at 30 µM the inhibition in assay [2] was 3 ± 3%. The inhibition in vivo at 30 µM, 30 µmol/kg in assay [1] (setting [3]) came out at 30%.

In assay [2], `COc1ccc(CN2C(=O)CC[C@H]2C(=O)N2CC3CC(CN(C(=O)OC(C)(C)C)C3)C2)cc1` [Compound 1m, tert-butyl-7-((S)-1-(4-methoxybenzyl)-5-oxopyrrolidine-2-carbonyl)-3,7-diazabicyclo[3.3.1]nonane-3-carboxylate] registered an inhibition at 30 µM of 10 ± 3%. In assay [1] (setting [3]), the inhibition in vivo at 30 µM, 30 µmol/kg came to 45%.

The compound `O=C([C@@H]1CCC(=O)N1Cc1ccc(Br)cc1)N1CC2CC(CN(Cc3ccccc3)C2)C1` [Compound 1o, (5S)-5-(7-(4-benzyl)-3,7-diazabicyclo[3.3.1]nonane-3-carbonyl)-1-(4-bromobenzyl)pyrrolidin-2-one] had an inhibition at 30 µM in assay [2] of 57 to 86%. Further, in assay [1] (setting [3]), the inhibition in vivo at 30 µM, 30 µmol/kg came out at 40%.

Consider `COc1ccc(CN2C(=O)CC[C@H]2C(=O)N2CC3CC(CN(Cc4ccccc4)C3)C2)cc1` [Compound 1p], for which the inhibition at 30 µM in assay [2] turned out to be 10 ± 4%. Moreover, the inhibition in vivo at 30 µM, 30 µmol/kg in assay [1] (setting [3]) is 30%.

On to `O=C(c1ccccc1)N1CC2CC(C1)CN(C(=O)[C@@H]1CCC(=O)N1Cc1ccccc1Br)C2` [Compound 1q, 5-(7-Benzoyl-3,7-diaza-bicyclo[3.3.1]nonane-3-carbonyl)-1-(2-bromo-benzyl)-pyrrolidin-2-one], for which, in assay [2], at 30 µM the inhibition was 25.6 ± 3.55%. Moreover, in assay [1] (setting [3]), the inhibition in vivo at 30 µM, 30 µmol/kg was determined as 60%.

In assay [2], `Cc1ccc(S(=O)(=O)N2CC3CC(CN(C(=O)[C@@H]4CCC(=O)N4Cc4ccccc4Br)C3)C2)cc1` [Compound 1r, 1-(2-Bromo-benzyl)-5-[7-(toluene-4-sulphonyl)-3,7-diaza-bicyclo[3.3.1]nonane-3-carbonyl]-pyrrolidin-2-one] showed an inhibition at 30 µM of 16.8 ± 5.66%. Also, the inhibition in vivo at 30 µM, 30 µmol/kg in assay [1] (setting [3]) was 55%.

In assay [2], `Cc1ccc(CN2C(=O)CC[C@H]2C(=O)N2CC3CC(CN(C(=O)c4ccccc4)C3)C2)cc1` [Compound 1s, 5-(7-Benzoyl-3,7-diaza-bicyclo[3.3.1]nonane-3-carbonyl)-1-(4-methyl-benzyl)-pyrrolidin-2-one] showed an inhibition at 30 µM of 20.5 ± 7.5%. Further, the inhibition in vivo at 30 µM, 30 µmol/kg in assay [1] (setting [3]) came out at 40%.

Compound `Cc1ccc(CN2C(=O)CC[C@H]2C(=O)N2CC3CC(C2)CN(S(=O)(=O)c2ccc(C)cc2)C3)cc1` [Compound 1t, 1-(4-Methyl-benzyl)-5-[7-(toluene-4-sulphonyl)-3,7-diaza-bicyclo[3.3.1]nonane-3-carbonyl]-pyrrolidin-2-one] came in with an inhibition at 30 µM in assay [2] of 37.5 ± 10.5%. The inhibition in vivo at 30 µM, 30 µmol/kg in assay [1] (setting [3]) was 40%.

`Cc1ccc(CN2C(=O)CC[C@H]2C(=O)N2CC3CC(CN(Cc4ccccc4Br)C3)C2)cc1` [Compound 1u, (5S)-5-(2-bromobenzyl-3,7-diazabicyclo[3.3.1]nonane-3-carbonyl)-1-(4-methylbenzyl)pyrrolidin-2-one]: in assay [2], the inhibition at 30 µM is 57 to 86%. In addition, the inhibition in vivo at 30 µM, 30 µmol/kg in assay [1] (setting [3]) came out at 30%.

In assay [2], `Cc1ccc(CN2C(=O)CC[C@H]2C(=O)N2CC3CC(CN(Cc4ccc(Br)cc4)C3)C2)cc1` [Compound 1v, (5S)-5-(7-(4-bromobenzyl)-3,7-diazabicyclo[3.3.1]nonane-3-carbonyl)-1-(4-methylbenzyl)pyrrolidin-2-one] showed an inhibition at 30 µM of 57 to 86%. For the same compound, in assay [1] (setting [3]), the inhibition in vivo at 30 µM, 30 µmol/kg worked out at 50%.

Source of the values: patent US20160214983A1, “3,7-DIAZABICYCLO[3.3.1]NONANE CARBOXAMIDES AS ANTITHROMBOTIC AGENTS” (COUNCIL OF SCIENTIFIC & INDUSTRIAL RESEARCH, priority 2013, published 2016).
